From ChEMBL document CHEMBL1275533, “In vitro antibacterial activity of vertilmicin and its susceptibility to modifications by the recombinant AAC6'-APH2'' enzyme” (2008)
Converted amounts (≈) assume the structure as drawn. The source made the active and inactive calls. The rule behind the calls is not given here.

Tests used:
[1] = system: Providencia rettgeri; assay: Antibacterial activity against gentamicin-resistant Proteus rettgeri clinical isolate after 18 hrs by agar dilution method; type: functional
[2] = system: Haemophilus influenzae; assay: Antibacterial activity against non-gentamicin-resistant Haemophilus influenzae clinical isolate after 18 hrs by agar dilution method; type: functional
[3] = system: Enterobacter cloacae; assay: Antibacterial activity against gentamicin-resistant Enterobacter cloacae clinical isolate assessed as susceptible isolates after 18 hrs by agar dilution method; type: functional
[4] = system: Pseudomonas aeruginosa; assay: Antibacterial activity against non-gentamicin-resistant Pseudomonas aeruginosa clinical isolate after 18 hrs by agar dilution method; type: functional
[5] = system: Staphylococcus epidermidis; assay: Antibacterial activity against gentamicin-resistant Staphylococcus epidermidis clinical isolate assessed as susceptible isolates after 18 hrs by agar dilution method; type: functional
[6] = system: Staphylococcus aureus; assay: Antibacterial activity against gentamicin-resistant Staphylococcus aureus clinical isolate assessed as susceptible isolates after 18 hrs by agar dilution method; type: functional
[7] = system: Acinetobacter calcoaceticus; assay: Antibacterial activity against gentamicin-resistant Acinetobacter calcoaceticus clinical isolate after 18 hrs by agar dilution method; type: functional
[8] = system: Citrobacter freundii; assay: Antibacterial activity against gentamicin-resistant Citrobacter freundii clinical isolate assessed as susceptible isolates after 18 hrs by agar dilution method; type: functional
[9] = system: Klebsiella aerogenes; assay: Antibacterial activity against non-gentamicin-resistant Enterobacter aerogenes clinical isolate assessed as susceptible isolates after 18 hrs by agar dilution method; type: functional
[10] = system: Haemophilus parainfluenzae; assay: Antibacterial activity against non-gentamicin-resistant Haemophilus parainfluenzae clinical isolate after 18 hrs by agar dilution method; type: functional
[11] = system: Citrobacter freundii; assay: Antibacterial activity against gentamicin-resistant Citrobacter freundii clinical isolate after 18 hrs by agar dilution method; type: functional
[12] = system: Enterobacter cloacae; assay: Antibacterial activity against non-gentamicin-resistant Enterobacter cloacae clinical isolate after 18 hrs by agar dilution method; type: functional
[13] = system: Staphylococcus epidermidis; assay: Antibacterial activity against non-gentamicin-resistant Staphylococcus epidermidis clinical isolate after 18 hrs by agar dilution method; type: functional
[14] = system: Proteus mirabilis; assay: Antibacterial activity against gentamicin-resistant Proteus mirabilis clinical isolate after 18 hrs by agar dilution method; type: functional
[15] = system: Haemophilus parainfluenzae; assay: Antibacterial activity against non-gentamicin-resistant Haemophilus parainfluenzae clinical isolate assessed as susceptible isolates after 18 hrs by agar dilution method; type: functional, organism-based
[16] = system: Staphylococcus aureus; assay: Antibacterial activity against gentamicin-resistant Staphylococcus aureus clinical isolate after 18 hrs by agar dilution method; type: functional
[17] = system: Pseudomonas sp.; assay: Antibacterial activity against non-gentamicin-resistant Pseudomonas spp. clinical isolate after 18 hrs by agar dilution method; type: functional
[18] = system: Pseudomonas aeruginosa; assay: Antibacterial activity against gentamicin-resistant Pseudomonas aeruginosa clinical isolate after 18 hrs by agar dilution method; type: functional
[19] = system: Pseudomonas sp.; assay: Antibacterial activity against gentamicin-resistant Pseudomonas spp. clinical isolate assessed as susceptible isolates after 18 hrs by agar dilution method; type: functional
[20] = system: Citrobacter freundii; assay: Antibacterial activity against non-gentamicin-resistant Citrobacter freundii clinical isolate assessed as susceptible isolates after 18 hrs by agar dilution method; type: functional
[21] = system: Klebsiella pneumoniae; assay: Antibacterial activity against non-gentamicin-resistant Klebsiella pneumoniae clinical isolate after 18 hrs by agar dilution method; type: functional
[22] = system: Morganella morganii; assay: Antibacterial activity against gentamicin-resistant Morganella morganii clinical isolate assessed as susceptible isolates after 18 hrs by agar dilution method; type: functional
[23] = system: Enterobacter cloacae; assay: Antibacterial activity against non-gentamicin-resistant Enterobacter cloacae clinical isolate assessed as susceptible isolates after 18 hrs by agar dilution method; type: functional
[24] = system: Citrobacter koseri; assay: Antibacterial activity against gentamicin-resistant Citrobacter diversus clinical isolate assessed as susceptible isolates after 18 hrs by agar dilution method; type: functional
[25] = system: Serratia marcescens; assay: Antibacterial activity against gentamicin-resistant Serratia marcescens clinical isolate after 18 hrs by agar dilution method; type: functional
[26] = system: Enterobacter cloacae; assay: Antibacterial activity against gentamicin-resistant Enterobacter cloacae clinical isolate after 18 hrs by agar dilution method; type: functional
[27] = system: Serratia marcescens; assay: Antibacterial activity against non-gentamicin-resistant Serratia marcescens clinical isolate after 18 hrs by agar dilution method; type: functional
[28] = system: Klebsiella aerogenes; assay: Antibacterial activity against gentamicin-resistant Enterobacter aerogenes clinical isolate after 18 hrs by agar dilution method; type: functional
[29] = system: Escherichia coli; assay: Antibacterial activity against non-gentamicin-resistant Escherichia coli clinical isolate after 18 hrs by agar dilution method; type: functional
[30] = system: Morganella morganii; assay: Antibacterial activity against non-gentamicin-resistant Morganella morganii clinical isolate after 18 hrs by agar dilution method; type: functional
[31] = system: Morganella morganii; assay: Antibacterial activity against gentamicin-resistant Morganella morganii clinical isolate after 18 hrs by agar dilution method; type: functional
[32] = system: Citrobacter freundii; assay: Antibacterial activity against non-gentamicin-resistant Citrobacter freundii clinical isolate after 18 hrs by agar dilution method; type: functional
[33] = system: Proteus mirabilis; assay: Antibacterial activity against non-gentamicin-resistant Proteus mirabilis clinical isolate assessed as susceptible isolates after 18 hrs by agar dilution method; type: functional
[34] = system: Staphylococcus epidermidis; assay: Antibacterial activity against non-gentamicin-resistant Staphylococcus epidermidis clinical isolate assessed as susceptible isolates after 18 hrs by agar dilution method; type: functional
[35] = system: Serratia marcescens; assay: Antibacterial activity against gentamicin-resistant Serratia marcescens clinical isolate assessed as susceptible isolates after 18 hrs by agar dilution method; type: functional
[36] = system: Klebsiella pneumoniae; assay: Antibacterial activity against gentamicin-resistant Klebsiella pneumoniae clinical isolate after 18 hrs by agar dilution method; type: functional
[37] = system: Acinetobacter calcoaceticus; assay: Antibacterial activity against non-gentamicin-resistant Acinetobacter calcoaceticus clinical isolate assessed as susceptible isolates after 18 hrs by agar dilution method; type: functional
[38] = system: Acinetobacter calcoaceticus; assay: Antibacterial activity against gentamicin-resistant Acinetobacter calcoaceticus clinical isolate assessed as susceptible isolates after 18 hrs by agar dilution method; type: functional
[39] = system: Pseudomonas aeruginosa; assay: Antibacterial activity against non-gentamicin-resistant Pseudomonas aeruginosa clinical isolate assessed as susceptible isolates after 18 hrs by agar dilution method; type: functional
[40] = system: Citrobacter koseri; assay: Antibacterial activity against non-gentamicin-resistant Citrobacter diversus clinical isolate after 18 hrs by agar dilution method; type: functional
[41] = system: Klebsiella pneumoniae; assay: Antibacterial activity against gentamicin-resistant Klebsiella pneumoniae clinical isolate assessed as susceptible isolates after 18 hrs by agar dilution method; type: functional
[42] = system: Escherichia coli; assay: Antibacterial activity against gentamicin-resistant Escherichia coli clinical isolate assessed as susceptible isolates after 18 hrs by agar dilution method; type: functional
[43] = system: Pseudomonas sp.; assay: Antibacterial activity against non-gentamicin-resistant Pseudomonas spp. clinical isolate assessed as susceptible isolates after 18 hrs by agar dilution method; type: functional
[44] = system: Pseudomonas sp.; assay: Antibacterial activity against gentamicin-resistant Pseudomonas spp. clinical isolate after 18 hrs by agar dilution method; type: functional

## NCC[C@H](O)C(=O)N[C@@H]1C[C@H](N)[C@@H](O[C@H]2O[C@H](CN)[C@@H](O)[C@H](O)[C@H]2O)[C@H](O)[C@H]1O[C@H]1O[C@H](CO)[C@@H](O)[C@H](N)[C@H]1O [AMIKACIN]
[1]
  MIC50: 1 µg/mL (≈ 1.71 µM)
  MIC90: 32 µg/mL (≈ 54.6 µM)
[2]
  MIC50: 8 µg/mL (≈ 13.7 µM)
  MIC90: 16 µg/mL (≈ 27.3 µM)
[3]
  Activity: 63.2%
[4]
  MIC50: 4 µg/mL (≈ 6.83 µM)
  MIC90: 16 µg/mL (≈ 27.3 µM)
[5]
  Activity: 73.1%
[6]
  Activity: 80.6%
[7]
  MIC50: 16 µg/mL (≈ 27.3 µM)
  MIC90: > 128 µg/mL
[8]
  Activity: 31.6%
[9]
  Activity: 100%
[10]
  MIC50: 4 µg/mL (≈ 6.83 µM)
  MIC90: 8 µg/mL (≈ 13.7 µM)
[11]
  MIC50: 2 µg/mL (≈ 3.42 µM)
  MIC90: 32 µg/mL (≈ 54.6 µM)
[12]
  MIC50: 2 µg/mL (≈ 3.42 µM)
  MIC90: 4 µg/mL (≈ 6.83 µM)
[13]
  MIC50: 0.5 µg/mL (≈ 0.854 µM)
  MIC90: 2 µg/mL (≈ 3.42 µM)
[14]
  MIC50: 4 µg/mL (≈ 6.83 µM)
  MIC90: > 128 µg/mL
[15]
  Activity: inactive
[16]
  MIC50: 8 µg/mL (≈ 13.7 µM)
  MIC90: 128 µg/mL (≈ 219 µM)
[17]
  MIC50: 4 µg/mL (≈ 6.83 µM)
  MIC90: 16 µg/mL (≈ 27.3 µM)
[18]
  MIC50: 8 µg/mL (≈ 13.7 µM)
  MIC90: 32 µg/mL (≈ 54.6 µM)
[19]
  Activity: 7.7%
[20]
  Activity: 100%
[21]
  MIC50: 1 µg/mL (≈ 1.71 µM)
  MIC90: 1 µg/mL (≈ 1.71 µM)
[22]
  Activity: 83.3%
[23]
  Activity: 96.4%
[24]
  Activity: 35.7%
[25]
  MIC50: > 128 µg/mL
  MIC90: > 128 µg/mL
[26]
  MIC50: 16 µg/mL (≈ 27.3 µM)
  MIC90: 32 µg/mL (≈ 54.6 µM)
[27]
  MIC50: 1 µg/mL (≈ 1.71 µM)
  MIC90: 2 µg/mL (≈ 3.42 µM)
[28]
  MIC50: 16 µg/mL (≈ 27.3 µM)
  MIC90: 64 µg/mL (≈ 109 µM)
[29]
  MIC50: 1 µg/mL (≈ 1.71 µM)
  MIC90: 2 µg/mL (≈ 3.42 µM)
[30]
  MIC50: 1 µg/mL (≈ 1.71 µM)
  MIC90: 2 µg/mL (≈ 3.42 µM)
[31]
  MIC50: 1 µg/mL (≈ 1.71 µM)
  MIC90: 4 µg/mL (≈ 6.83 µM)
[32]
  MIC50: 2 µg/mL (≈ 3.42 µM)
  MIC90: 4 µg/mL (≈ 6.83 µM)
[33]
  Activity: 100%
[34]
  Activity: 98.8%
[35]
  Activity: 30%
[36]
  MIC50: 1 µg/mL (≈ 1.71 µM)
  MIC90: > 128 µg/mL
[37]
  Activity: 98%
[38]
  Activity: 48%
[39]
  Activity: 100%
[40]
  MIC50: 1 µg/mL (≈ 1.71 µM)
  MIC90: 2 µg/mL (≈ 3.42 µM)
[41]
  Activity: 82.1%
[42]
  Activity: 93%
[43]
  Activity: 90.9%
[44]
  MIC50: > 128 µg/mL
  MIC90: > 128 µg/mL
